Data from publication PMC11845477, “Exploring the principles behind antibiotics with limited resistance” (Nature Communications, 2025).
Where “and” joins values, the source holds several entries; their conditions need not be identical. Identical values can stand only once. Like-named read-outs stand apart in the source and are kept apart here. Where a SMILES comes first, the peptide text is derived from it. Bridges are numbered along the chain shown (N, C = ends). [ ]: non-standard residue; d: D form. The star is where a group is joined. X2 = CC[C@H](C)CCCCC(=O)*; Dab = NCC[C@H](N)C(=O)O

Columns and labels:
[1] = test system: P. aeruginosa ATCC BAA-3107 (SEN) and P. aeruginosa LESB58 (MDR); test: Frequency-of-resistance (FoR) assay, relative MIC of mutants; assay type: cell-based, Pseudomonas aeruginosa
Procedure: The susceptibility of antibiotics to resistance development was evaluated in two strains of each bacterial species: a multidrug-resistant strain and an antibiotic-sensitive strain of Escherichia coli, Klebsiella pneumoniae, Acinetobacter baumannii, and Pseudomonas aeruginosa. To explore first-step resistance, we previously used a standard protocol for spontaneous frequency-of-resistance analysis (FoR assay) at multiple concentrations of each antibiotic[10],[28],[31]–[33]. […] For all other combinations, approximately 10^10 bacterial cells were exposed to one of each antibiotic on agar plates for two days at concentrations where the given strain is susceptible. We examined resistance levels by contrasting the minimum inhibitory concentration (MICs) of the mutated strains to the original wild-type bacterial strain (i.e., relative MIC).
To estimate the frequency of spontaneous mutations that confer resistance in a microbial population, we conducted a frequency of resistance (FoR) assay following established protocols[10],[31]–[33]. […] Prior to plating, bacteria were grown overnight in MHB medium at 37 °C and 250 RPM, then centrifuged and washed in MHB. All experiments were performed in triplicate, and plates were incubated at 37 °C for 48 hours. Total colony-forming units (CFUs) were determined by plating appropriate dilutions onto antibiotic-free MHB agar. Resistance frequencies were calculated by dividing the number of resistant colonies by the initial viable cell count. From the plates with the highest antibiotic concentration, ten colonies were selected for MIC determination and whole-genome sequencing.
A robotic liquid handling system was used to automatically prepare a 11 to 16-step serial dilution in 384-well microtiter plates (Greiner). A final concentration of 5 × 10^5 bacterial cells per mL were inoculated into each well containing 60 µL MHB medium. Bacterial cultures were incubated at 37 °C with continuous shaking (Infors shaker, 900 rpm with 3 mm throw) for 18 hours (2 replicates from each). Cell growth was monitored by measuring the optical density (OD600 values, using Biotek Synergy microplate reader). MIC was defined as the antibiotic concentration of complete growth inhibition (i.e., OD600 < 0.05). Relative MIC was calculated as follows:1 relativeMIC=MICevolved/MICancestor […]
Supplementary Figure 3. Resistance levels following the frequency of resistance assay across bacterial strains. The level of resistance was measured as the fold change in relative MIC between evolved and ancestral strains. Data are grouped by bacterial strain (A. baumannii (AB), E. coli (EC), K. pneumoniae (KP), and P. aeruginosa (PA)) and categorized as either multidrug-resistant (MDR) or sensitive (SEN). Each data point represents a laboratory evolved line, and boxplots show the median, first and third quartiles, with whiskers indicating the 5th and 95th percentiles. […]
analysis was performed using two-sided Dunn’s post-hoc test with Benjamini-Hochberg correction for multiple comparisons (**/ * indicates p < 0.01/ 0.05). For detailed information on antibiotic and bacterial species, see Supplementary Table 1. For mode of action groups, refer to Table 1. Source data are provided as a Source Data file.

E. coli = assay type: cell-based, Escherichia coli
Procedure: (§1) We employed image analysis to quantify bacterial survival under fixed antibiotic concentrations (10xMIC for 4 hours) on E. coli, A. baumannii, K. pneumoniae, and P. aeruginosa. […] Survival rate was quantified by calculating the ratio of the viable cells after antibiotic treatment and the total initial viable cell count.
(§2) Fig. 9 Killing kinetics of the studied antibiotics. a Bacterial survival rate in response to toxic antibiotic exposure. […] The bars indicate the survival rate (log10) compared to the untreated initial viable cell count (see “Methods”). Data are presented as mean values of 5 biological replicates ± SEM. The antibiotic group differentiation is denoted by color. […] Survival was estimated by measuring cell viability (colony-forming units/ml) of 2 biologically independent strains following a 4-hour exposure to different concentrations of 16 antibiotics on E. coli ATCC25922 (for further details, see “Methods”). The antibiotic concentration that kills 99.9% of the E. coli population is indicated as a vertical dotted line (see Supplementary Data 5). Error bars represent standard error calculated from the colony counts by Poisson’s model. A Hill function was fitted to the dose-response data from two biological replicates, producing sigmoidal curves (Supplementary Data 5). The Hill coefficient reflects how steeply the survival rate decreases in response to increasing antibiotic concentration ([…]). […] X-axis label colors indicate mode of action groups. For detailed information on antibiotic and bacterial species, see Supplementary Data 1. Source data are provided as a Source Data file.
(§3) In this current study, the killing kinetics of each antibiotic was measured according to a previously established experimental protocol[62] with minor modifications. During this assay, the bacterial cultures were exposed to antibiotics in 96-well assay plates and their viability after 4 hours of exposure was quantified by two methods: i) microplating and colony counting or ii) fluorescent staining of cells and counting of the fluorescent units.
(§4) Specifically, these experiments were performed in the following steps: (1) Preparation of bacterial stocks. Single colonies from each strain were isolated and grown overnight in MHB medium at 37 °C, 160 rpm. In case of the fluorescently tagged E. coli strains, the medium was supplemented with 10 μg/mL chloramphenicol, to maintain the pZS2R plasmid. Overnight cultures were diluted 1:5000 and grown to an optical density at 600 nm (OD600) of 0.25. These cultures were concentrated by centrifugation and small aliquots of 50 μL containing ~2.2 × 10^9 cells were frozen in glycerol (stored at −80 °C). (2) Preparing assay plates with antibiotics. 96-well plates were filled with 235 μL MHB and supplemented with antibiotics using an automated digital dispenser (D300e, Tecan). In the case of SCH79797, we used minimal media. […] For testing the clearance efficacy of each antibiotic at a single lethal dose, the 10x of the MIC for each antibiotic-strain pair were prepared in at least three replicates. (3) Antibiotic exposure. During the dose response assay, frozen cultures of the E. coli strains expressing YFP and mCherry were thawed and mixed at a 1:1 ratio, diluted 1:1000 in 30 mL MHB and incubated for 45 min at 37 °C and 160 rpm. During the single-dose assay, the frozen cultures of experimental strains (E. coli, K. pneumoniae, A. baumannii) were also thawed and diluted 1:1000 in 30 mL MHB and incubated at 37 °C to reach an OD of 0.25 and 160 rpm. Following this incubation phase, these bacterial cultures were then aliquoted into the 96-well deep-well antibiotic plates (15 μL culture; total volume of 250 μL) at an inoculum density of about 10^7 CFU.

P. aeruginosa = assay type: cell-based, Pseudomonas aeruginosa
Procedure: as §1, §2, §3, §4

[2] = P. aeruginosa ATCC BAA 3107 (PA-SEN), evolved line 1
[3] = P. aeruginosa ATCC BAA 3107 (PA-SEN), evolved line 2
[4] = P. aeruginosa ATCC BAA 3107 (PA-SEN), evolved line 3
[5] = P. aeruginosa LESB 58 (PA-MDR), evolved line 1
[6] = P. aeruginosa LESB 58 (PA-MDR), evolved line 2
[7] = P. aeruginosa LESB 58 (PA-MDR), evolved line 3
[8] = Escherichia coli, survival at 10xMIC for 4 hours, single replicates, (fig 9a source data)
[9] = P. aeruginosa ATCC BAA 3107 (PA-SEN), evolved line 1, evolved vs ancestor
[10] = P. aeruginosa ATCC BAA 3107 (PA-SEN), evolved line 2, evolved vs ancestor
[11] = P. aeruginosa ATCC BAA 3107 (PA-SEN), evolved line 3, evolved vs ancestor

In the case of polymyxin-B, the MIC of evolved line [1, 2] is reported as 1 µg/mL, the MIC of evolved line [1, 3] is reported as 1 µg/mL and the MIC of evolved line [1, 4] is reported as 1 µg/mL. It also gave an MIC of evolved line [1, 5] of 4 µg/mL, an MIC of evolved line [1, 6] of 4 µg/mL and an MIC of evolved line [1, 7] of 4 µg/mL.
Tridecaptin M152-P3 was tested, and the “Survival rate (log10)” value (E. coli) was -4.747 log10 and the “Survival rate (log10)” value (E. coli; [8]) was -3.386 log10.
For `CNC(C)C1CCC(N)C(OC2C(N)CC(N)C(OC3OCC(C)(O)C(NC)C3O)C2O)O1` (stereo not shown) [Gentamicin], the “Survival rate (log10)” value (E. coli; Escherichia coli, survival at 10xMIC for 4 hours, single replicates, (fig 9a source data), listed as GEN) was -0.32 log10 and -0.3695 log10 and -0.2419 log10 and -0.4019 log10 and -0.3632 log10, the MIC of evolved line [1, 2] was 8 µg/mL and the “Relative MIC” value [1, 9] was 8. The MIC of evolved line [1, 3] was 8 µg/mL, the “Relative MIC” value [1, 10] was 8 and the MIC of evolved line [1, 4] was 8 µg/mL. For the same compound, the “Relative MIC” value [1, 11] was 8 and the “Survival rate (log10)” value (P. aeruginosa; Pseudomonas aeruginosa, survival at 10xMIC for 4 hours, single replicates, (fig 9a source data), listed as GEN) was -0.02375 log10 and -0.1205 log10 and -0.1516 log10 and -0.09697 log10 and -0.6642 log10.
With `CC(C)c1ccc(Cn2ccc3c4c(N)nc(NC5CC5)nc4ccc32)cc1` [SCH79797] the “bacterial survival after toxic antibiotic exposure” value (E. coli; 10xMIC for 4 hours) was “eliminated the entire bacterial population” and the “Survival rate (log10)” value (E. coli; [8]) was -6 log10.
colistin was tested, and the “Survival rate (log10)” value (E. coli; Escherichia coli, survival at 10xMIC for 4 hours, single replicates, (fig 9a source data), listed as COL) was -4.747 log10 and -3.794 log10, the “bacterial survival after toxic antibiotic exposure” value (P. aeruginosa; 10xMIC for 4 hours) was “eliminate the full bacterial population” and the “Survival rate (log10)” value (P. aeruginosa; Pseudomonas aeruginosa, survival at 10xMIC for 4 hours, single replicates, (fig 9a source data)) was -6 log10.
With `COc1c(N2C[C@@H]3CCCN[C@@H]3C2)c(F)cc2c(=O)c(C(=O)O)cn(C3CC3)c12` [Moxifloxacin] the MIC of evolved line [1, 2] was 16 µg/mL, the MIC of evolved line [1, 3] was 32 µg/mL and the MIC of evolved line [1, 4] was 32 µg/mL.
In the case of POL7306, the “Survival rate (log10)” value (E. coli) is reported as -4.747 log10, the “Survival rate (log10)” value (E. coli; Escherichia coli, survival at 10xMIC for 4 hours, single replicates, (fig 9a source data), listed as POL) is reported as -4.446 log10 and -4.3509 log10 and the “Survival rate (log10)” value (P. aeruginosa) is reported as -6 log10. For the same compound, the “Survival rate (log10)” value (P. aeruginosa; Pseudomonas aeruginosa, survival at 10xMIC for 4 hours, single replicates, (fig 9a source data), listed as POL) was -2.602 log10 and -2.902 log10 and -2.057 log10.
With `C[C@H]1c2cccc(O)c2C(=O)C2=C(O)[C@]3(O)C(=O)C(C(N)=O)=C(O)[C@@H](N(C)C)[C@@H]3[C@@H](O)[C@@H]21` [Doxycycline] the “Relative MIC” value [1, 9] was 32, the “Relative MIC” value [1, 10] was 32 and the “Relative MIC” value [1, 11] was 32.
For `CC[C@H](C)CCCCC(=O)N[C@@H](CCN)C(=O)N[C@H](C(=O)N[C@@H](CCN)C(=O)N[C@H]1CCNC(=O)[C@H]([C@@H](C)O)NC(=O)[C@H](CCN)NC(=O)[C@H](CCN)NC(=O)[C@H](CC(C)C)NC(=O)[C@@H](Cc2ccccc2)NC(=O)[C@H](CCN)NC1=O)[C@@H](C)O` [Polymyxin B] (X2-[Dab]T[Dab][Dab][Dab][dF]L[Dab][Dab]T; lactam 4-C (inferred); N-terminus assumed), the “Survival rate (log10)” value (E. coli; Escherichia coli, survival at 10xMIC for 4 hours, single replicates, (fig 9a source data), listed as PMB) was -4.007 log10 and -4.747 log10 and -3.481 log10 and the “Survival rate (log10)” value (P. aeruginosa; Pseudomonas aeruginosa, survival at 10xMIC for 4 hours, single replicates, (fig 9a source data), listed as PMB) was -6 log10 and -3.379 log10.
With `C[C@@H](O)[C@H]1C(=O)N2C(C(=O)O)=C(S[C@H]3CC[S@@+]([O-])C3)S[C@H]12` [Sulopenem] the “Survival rate (log10)” value (E. coli; Escherichia coli, survival at 10xMIC for 4 hours, single replicates, (fig 9a source data), listed as SUO) was -1.918 log10 and -1.5648 log10 and -1.786 log10 and -1.733 log10 and -1.844 log10.
`O=c1ccc2ncc(=O)n3c2n1C[C@H]3CN1CCC(NCc2cc3c(cn2)OCCC3)CC1` [Gepotidacin] was tested, and the MIC of evolved line [1, 2] was 64 µg/mL, the “Relative MIC” value [1, 9] was 16 and the MIC of evolved line [1, 3] was 64 µg/mL. The “Relative MIC” value [1, 10] was 16, the MIC of evolved line [1, 4] was 64 µg/mL and the “Relative MIC” value [1, 11] was 16. The MIC of evolved line [1, 5] was 32 µg/mL, the “Relative MIC” value ([1]; P. aeruginosa LESB 58 (PA-MDR), evolved line 1, evolved vs ancestor) was 8 and the MIC of evolved line [1, 6] was 32 µg/mL. The “Relative MIC” value ([1]; P. aeruginosa LESB 58 (PA-MDR), evolved line 2, evolved vs ancestor) was 8, the MIC of evolved line [1, 7] was 16 µg/mL and the “Relative MIC” value ([1]; P. aeruginosa LESB 58 (PA-MDR), evolved line 3, evolved vs ancestor) was 4.
In the case of `C[C@@H](O)[C@H]1C(=O)N2C(C(=O)O)=C(S[C@@H]3CN[C@H](C(=O)N(C)C)C3)[C@H](C)[C@H]12` [Meropenem], the MIC of evolved line [1, 2] is reported as 2 µg/mL, the MIC of evolved line [1, 3] is reported as 2 µg/mL and the MIC of evolved line [1, 4] is reported as 2 µg/mL. It also gave an MIC of evolved line [1, 5] of 32 µg/mL, an MIC of evolved line [1, 6] of 32 µg/mL and an MIC of evolved line [1, 7] of 32 µg/mL.
